{"source": "patent US8623416B2", "about": "(priority 2009, dated 2014)", "key": {"[1]": {"assay_type": "physicochemical", "conditions": "0.1 ml squalamine lactate 10 mg/ml in water + 1 volume 0.1M solution of the anion, turbid = insoluble salt form"}, "[2]": {"tested_on": "Yellow Fever", "set-up": "species or system Syrian hamsters", "conditions": "hamster, in vivo"}, "[3]": {"tested_on": "human Hepatitis B virus", "test": "Hepatitis B virus replication in primary human hepatocytes, PCR (Example 19)", "assay_type": "cell-based", "experimental": "The purpose of this experiment was to determine the antiviral activity of squalamine against human Hepatitis B virus. The experiment was conducted in vitro, using primary human hepatocytes.\nExperimental design: Primary human hepatocytes were established in a 96 well microtiter plate. Squalamine was then added at concentrations of 2, 6 or 20 μg/ml followed by an inoculum of Hep B virus, and then in culture for 16 hours, after which fresh medium was introduced, and the cells maintained in culture for 14 days. In a second experiment, squalamine at 6 or 20 μg/ml was added to the cells at 24 hours post inoculation for a 16 hour exposure, followed by removal of medium, replacement with fresh medium, and continued culture for 14 days. Viral growth was measured by PCR using viral specific primers and normalized to the total RNA extracted from each corresponding well."}, "[4]": {"tested_on": "human Hepatitis Delta virus", "test": "Hepatitis Delta virus replication in primary human hepatocytes, PCR (Example 20)"}, "[5]": {"conditions": "for Toxicity: hamster, in vivo, sc"}, "[6]": {"tested_on": "Eastern Equine Encephalitis Virus", "set-up": "species or system mice", "conditions": "mouse, in vivo"}, "[7]": {"conditions": "in vivo; cited from earlier work"}, "[8]": {"conditions": "in vivo; cited from earlier work", "remark": "listed apart in the source"}, "[9]": {"tested_on": "human immunodeficiency virus (HIV)"}, "[10]": {"tested_on": "Yellow Fever", "set-up": "species or system Syrian hamsters", "conditions": "hamster, in vivo", "remark": "listed apart in the source"}, "[11]": {"tested_on": "Eastern Equine Encephalitis Virus", "set-up": "species or system hamsters (Syrian golden)", "conditions": "hamster, in vivo"}, "[12]": {"tested_on": "murine cytomegalovirus (MCMV)", "assay_type": "in vivo, Balb/c mice", "conditions": "for viral titers in lungs and salivary glands vs other groups / viral titers in spleen and liver vs control: day 7"}, "[13]": {"tested_on": "Dengue virus"}, "[14]": {"conditions": "10 mg of squalamine as a phosphate suspension"}, "[15]": {"conditions": "20 μg/ml, added during initial stages of infection"}, "[16]": {"conditions": "squalamine phosphate 10 mg/kg/day s.c."}, "[17]": {"conditions": "mouse, in vivo, ip, 10 mg/kg/day"}}, "note": "“Also recorded” adds a separate entry of the source. Like-named read-outs stand apart in the source and are kept apart here."}
{"compound": "O=P([O-])([O-])OP(=O)([O-])OP(=O)([O-])[O-].[Na+].[Na+].[Na+].[Na+].[Na+]", "note": "[Sodium triphosphate]", "values": [{"measurement": "Turbidity", "setting": "[1]; triphosphate", "value": "Yes and yes"}]}
{"compound": "NC(=O)c1ncn([C@@H]2O[C@H](CO)[C@@H](O)[C@H]2O)n1", "note": "[ribavirin, reference compound]", "values": [{"measurement": "survival vs placebo", "setting": "[2]", "value": "fared no better than the placebo-treated cohort"}]}
{"compound": "3 beta-N-1-(N-[3-(4-aminobutyl)]-1,3-diaminopropane)-7 alpha,24 zeta-dihydroxy-5 alpha-cholestane 24-sulfate [squalamine]", "values": [{"measurement": "inhibition of viral production", "setting": "[3]; 2 μg/ml, added only at the outset of infection", "value": 14, "unit": "%"}, {"measurement": "inhibition of viral production", "setting": "[3]; 6 μg/ml, added at 24 hours", "value": 30, "unit": "%"}, {"measurement": "inhibition of viral production", "setting": "[3]; 6 μg/ml, added at the onset of infection", "value": 54, "unit": "%"}, {"measurement": "inhibition of viral production", "setting": "[3]; 20 μg/ml, added at 24 hours", "value": 64, "unit": "%"}, {"measurement": "inhibition of viral production", "setting": "[3]; [15]", "value": 83, "unit": "%"}, {"measurement": "inhibition of viral production", "setting": "[4]; [15]", "value": 90, "unit": "%"}, {"measurement": "cytotoxicity in vitro", "setting": "[4]; 60 μg/ml, primary human hepatocytes", "value": "cytotoxic"}, {"measurement": "Toxicity", "setting": "[5]; 15 mg/kg/day", "value": "Mild/moderate by day 1"}, {"measurement": "Toxicity", "setting": "[5]; 30 mg/kg/day", "value": "moderate"}, {"measurement": "Toxicity", "setting": "[5]; 60 mg/kg/day", "value": "Severe, open wounds"}, {"measurement": "efficacy in mice", "setting": "[6]", "value": "ineffective"}, {"measurement": "tolerability", "setting": "[7]", "value": "well tolerated"}, {"measurement": "tolerability", "setting": "[8]", "value": "well tolerated"}, {"measurement": "Toxicity", "setting": "[9]", "value": "no evidence of toxicity"}, {"measurement": "inhibition of HIV infection", "setting": "[9]", "value": "about 50%; also recorded: about 20%"}, {"measurement": "animals cured", "setting": "[10]", "value": 40, "unit": "%"}, {"measurement": "outcome of treatment of established infection", "setting": "[10]", "value": "cure a lethal infection"}, {"measurement": "survival through day 21", "setting": "[10]", "value": 60, "unit": "%"}, {"measurement": "survival", "setting": "[2]", "value": 70, "unit": "%"}, {"measurement": "effect on survival", "setting": "[11]", "value": "extended survival; also recorded: increase survival"}, {"measurement": "effect on viremia", "setting": "[11]", "value": "significantly reduce viremia"}, {"measurement": "hamsters still alive at the end of treatment", "setting": "[11]", "value": "6/10"}, {"measurement": "plasma concentrations of virus lower than vehicle", "setting": "[11]", "value": "about 100 fold"}, {"measurement": "viral titers in lung compared with control", "setting": "[12]; 10 mg/kg/day i.p.", "value": "trend toward reduction"}, {"measurement": "viral titers in lungs and salivary glands vs other groups", "setting": "[12]; 10 mg/kg/day i.p.", "value": "no significant differences"}, {"measurement": "viral titers in spleen and liver vs control", "setting": "[12]; 10 mg/kg/day i.p.", "value": "significantly lower than in the control cohort"}, {"measurement": "viral titers in lungs and salivary glands vs other groups", "setting": "[12]; [16]", "value": "no significant differences"}, {"measurement": "viral titers in spleen and liver vs control", "setting": "[12]; [16]", "value": "significantly lower than in the control cohort"}, {"measurement": "virus in the liver and spleen", "setting": "[12]; mouse, in vivo", "value": "significantly reduced; also recorded: undetectable levels"}, {"measurement": "effect on viral growth in the salivary gland", "setting": "[12]; [17]", "value": "little effect"}, {"measurement": "reduction in viral growth in liver, spleen, and lung", "setting": "[12]; [17]", "value": "greater than 10 fold"}, {"measurement": "virus in the liver and spleen", "setting": "[12]; [17]", "value": "undetectable levels"}, {"measurement": "cell viability", "setting": "[13]", "value": "not diminished"}, {"measurement": "inhibition of viral infection", "setting": "[13]", "value": 100, "unit": "%"}]}
{"compound": "squalamine phosphate", "values": [{"measurement": "Toxicity", "setting": "[5]; 15 mg/kg/day", "value": "none"}, {"measurement": "Toxicity", "setting": "[5]; 30 mg/kg/day", "value": "none"}, {"measurement": "Toxicity", "setting": "[5]; 60 mg/kg/day", "value": "none"}, {"measurement": "lesions at the sites of administration", "setting": "[5]; s.c. dosing at 10 mg/ml, recorded 7 days post injection", "value": "no lesions"}, {"measurement": "persistence of local signs (lactate: signs and symptoms; phosphate: slight swelling)", "setting": "0.1 ml of 10 mg/ml s.c.", "value": "about 1 week"}, {"measurement": "local signs at injection site", "setting": "human, in vivo, sc", "value": "free of visible signs of irritation, save for a slight swelling"}, {"measurement": "pain on injection", "setting": "human, in vivo, sc", "value": "no pain other than that produced by the needle prick"}, {"measurement": "survival", "setting": "[2]", "value": 70, "unit": "%"}, {"measurement": "water added until fully dissolved", "setting": "[14]", "value": "about 250 ml"}]}
{"compound": "CC(=O)C(=O)[O-].[Na+]", "note": "[Sodium pyruvate]", "values": [{"measurement": "Turbidity", "setting": "[1]", "value": "No and no"}]}
{"compound": "O=C[C@H](O)[C@@H](O)[C@H](O)[C@H](O)COP(=O)(O)O", "note": "[Glucose 6-phosphate]", "values": [{"measurement": "Turbidity", "setting": "[1]", "value": "No and no"}]}
